Test results as given in US20200115353A1, “NEW COMPOUNDS INHIBITORS OF THE YAP/TAZ-TEAD INTERACTION AND THEIR USE IN THE TREATMENT OF MALIGNANT MESOTHELIOMA” (INVENTIVA, priority 2017, published 2020).

Biological target: T1, YAP-TEAD interaction (full length human TEAD1-Gal4 fusion, full length YAP mutant S127A, S397A) (UniProt P04386+P28347)
T1 construct: The TEAD1 construct was prepared by cloning the full length human TEAD1 cDNA; expressed in transfected cells; host or cells: HEK293 GripTite 293 MSR (Invitrogen R795-07), transiently transfected with pSG5_CMV plasmids
Test: Cell-based TEAD-GAL4 transactivation assay (luciferase reporter, HEK293)
Conditions: HEK293 cells, compounds 0.1 μM to 30 μM, 24 h, concentration that inhibited the luciferase activity by 50%
Procedure: To identify inhibitors of YAP-TEAD interaction, a transient transactivation assays was carried out into HEK293 cell line (HEK293 GripTite™ 293 MSR (Invitrogen R795-07)) using plasmids containing the full length TEAD1 sequences, the full length YAP mutant (S127A, S397A) and a luciferase gene reporter. All expression constructs were performed into pSG5 backbone plasmid in which the SV40 promoter was replaced by the CMV promoter. The TEAD1 construct was prepared by cloning the full length human TEAD1 cDNA in fusion with the Gal4 DNA Binding Domain (AA 1-148) into pSG5_CMV to create the TEAD1(FL)_hum_pSG5Gal4_CMV. The full length YAP mutant (S127A, S397A) was also cloned into pSG_5 CMV to create the YAP(FL)_hum_pSG5_[…]. The reporter plasmid GAL4(5×RE)_[…]_pGL3-Basic contains 5 copies of the GAL4 responsive element (5′-TCGGAGGACAGTACTCC-3′) upstream of the thymidine kinase (TK) promoter (−105/+56) inserted in a pGL3-Basic vector. To evaluate the selectivity of our compounds in blocking the YAP-TEAD interaction, a counter-screening protein-protein interaction transactivation assays was also established. Briefly, two other expression plasmids, the pBD-P53 which express the P53 (AA 72-390) in fusion with Gal4 and the pAD-SV40T which express the SV40 large T antigen (AA 84-708,AgT), were created. HEK293 cells were seeded at 5×10^4 cells/well in 96 well plates (assay plates) in DMEM medium containing 4.5 g/L D-glucose, 10% high inactivated (HI) fetal bovine serum 1% Glutamax, 1% non-essential amino acid and 1% sodium pyruvate and 0.5% penicillin/streptomycin 37° C. in a humidified atmosphere of 8% CO2. After 24 h, transfections are performed using Jet-PEI as transfectant (101B-010 Polyplus Transfection), according to the instructions of the manufacturer (N/P=10) and a ratio YAP/TEAD=10 (per well: 50 ng of YAP(FL), 5 ng of TEAD(FL) and 50 ng of reporter plasmid). Six hours after cell transfection, the plates (‘assay plate’) were washed with 100 μl PBS per well and cell were treated with compounds in semi-log from 0.1 μM to 30 μM or DMSO 0.5% as control in DMEM 4.5 g/L D-Glucose without phenol red, 0.3% BSA, 1% glutamax, 1% NEAA, 1% sodium pyruvate. Twenty-four hours later, the luciferase activity was determined after addition of 100 μl of Steady Glo™ luciferase assay system (Promega E2550) according to the manufacturer's directions. Luciferase activity in cell extracts is measured by reading luminescence using the Envision device.
The cellular response was determined by fitting the concentration response curves using a 3-parameter curve fit equation and determining the concentration that inhibited the luciferase activity by 50%.

T1 sequence (P04386+P28347 fused, stated change not applied): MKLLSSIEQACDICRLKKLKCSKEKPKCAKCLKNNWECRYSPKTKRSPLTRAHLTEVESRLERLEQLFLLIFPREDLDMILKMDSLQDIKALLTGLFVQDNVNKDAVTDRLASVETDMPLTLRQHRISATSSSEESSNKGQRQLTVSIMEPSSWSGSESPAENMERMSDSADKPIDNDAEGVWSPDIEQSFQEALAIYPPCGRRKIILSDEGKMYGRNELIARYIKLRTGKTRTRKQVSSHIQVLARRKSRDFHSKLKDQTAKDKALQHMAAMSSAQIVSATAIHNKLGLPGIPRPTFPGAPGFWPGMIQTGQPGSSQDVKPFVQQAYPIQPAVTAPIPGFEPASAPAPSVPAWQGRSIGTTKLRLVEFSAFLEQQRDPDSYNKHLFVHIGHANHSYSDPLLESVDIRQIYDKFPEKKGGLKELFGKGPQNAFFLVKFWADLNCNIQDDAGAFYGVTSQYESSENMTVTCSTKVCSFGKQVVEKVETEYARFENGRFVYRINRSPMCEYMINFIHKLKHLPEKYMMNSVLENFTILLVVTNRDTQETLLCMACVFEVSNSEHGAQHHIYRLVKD

Structure (SMILES) | IC50 [µM]
COc1cc(/C=N/N(CC(C)C)C2=NS(=O)(=O)c3ccc(B(O)O)cc32)ccc1F [Ex 94, [3-[[(E)-(4-fluoro-3-methoxy-phenyl)methyleneamino]-isobutyl-amino]-1,1-dioxo-1,2-benzothiazol-5-yl]boronic acid] | 3.31
COc1cc(/C=N/N(CC(C)C)C2=NS(=O)(=O)c3ccc(OCB(O)O)cc32)ccc1F [Ex 95, [3-[[(E)-(4-fluoro-3-methoxy-phenyl)methyleneamino]-isobutyl-amino]-1,1-dioxo-1,2-benzothiazol-5-yl]oxymethylboronic acid] | 1.35
CCC1(CC)C(=O)Nc2ccc(/C=N/N(CC(C)C)C3=NS(=O)(=O)c4cc(O)ccc43)cc21 [Ex 96, 3,3-diethyl-5-[(E)-[(6-hydroxy-1,1-dioxo-1,2-benzothiazol-3-yl)-isobutyl-hydrazono]methyl]indolin-2-one] | 10.4
CCOc1ccc2c(c1)S(=O)(=O)N=C2N(CC(C)C)/N=C/c1ccc2c(c1)C(CC)(CC)C(=O)N2 [Ex 97, 5-[(E)-[(6-ethoxy-1,1-dioxo-1,2-benzothiazol-3-yl)-isobutyl-hydrazono]methyl]-3,3-diethyl-indolin-2-one] | 2.77
CCC1(CC)C(=O)Nc2ccc(/C=N/N(CC(C)C)C3=NS(=O)(=O)c4cc(OC)ccc43)cc21 [Ex 98, 3,3-diethyl-5-[(E)-[isobutyl-(6-methoxy-1,1-dioxo-1,2-benzothiazol-3-yl) hydrazono]methyl]indolin-2-one] | 3.92
CCC1(CC)C(=O)Nc2ccc(/C=N/N(CC(C)C)C3=NS(=O)(=O)c4cc(OC(C)C)ccc43)cc21 [Ex 99, 3,3-diethyl-5-[(E)-[isobutyl-(6-isopropoxy-1,1-dioxo-1,2-benzothiazol-3-yl)hydrazono]methyl]indolin-2-one] | 4.14
COc1cc(/C=N/N(C2=NS(=O)(=O)c3cc(B(O)O)ccc32)C(C)C)ccc1F [Ex 102, [3-[[(E)-(4-fluoro-3-methoxy-phenyl)methyleneamino]-isopropyl-amino]-1,1-dioxo-1,2-benzothiazol-6-yl]boronic acid] | 3.01
CNC(=O)COc1ccc2c(c1)C(N(CC(C)C)/N=C/c1ccc(F)c(OC)c1)=NS2(=O)=O [Ex 105, 2-[[3-[[(E)-(4-fluoro-3-methoxy-phenyl)methyleneamino]-isobutyl-amino]-1,1-dioxo-1,2-benzothiazol-5-yl]oxy]-N-methyl-acetamide] | 4.94
COc1cc(/C=N/N(CC(C)C)C2=NS(=O)(=O)c3cc(OCB4OC(=O)CN(C)CC(=O)O4)ccc32)ccc1F [Ex 106, 2-[[3-[[(E)-(4-fluoro-3-methoxy-phenyl)methyleneamino]-isobutyl-amino]-1,1-dioxo-1,2-benzothiazol-6-yl]oxymethyl]-6-methyl-1,3,6,2-dioxaza-borocane-4,8-dione] | 0.94
CSc1cc(/C=N/N(CC(C)C)C2=NS(=O)(=O)c3ccccc32)ccc1F [Ex 107, N-[(E)-(4-fluoro-3-methylsulfanyl-phenyl)methyleneamino]-N-isobutyl-1,1-dioxo-1,2-benzothiazol-3-amine] | 2.14
COc1cc(C2=NN(C3=NS(=O)(=O)c4cc(B(O)O)ccc43)C(C)CC2)ccc1F (centres unmarked) [Ex 109, [3-[6-(4-fluoro-3-methoxy-phenyl)-3-methyl-4,5-dihydro-3H-pyridazin-2-yl]-1,1-dioxo-1,2-benzothiazol-6-yl]boronic acid] | 0.7
COc1cc(C2=NN(C3=NS(=O)(=O)c4ccccc43)CC(C)(C)C2)ccc1F [Ex 110, 3-[6-(4-fluoro-3-methoxy-phenyl)-4,4-dimethyl-3,5-dihydropyridazin-2-yl]-1,2-benzothiazole 1,1-dioxide] | 3.23
COCn1c(=O)n(C2CCC2)c2cc(/C=N/N(C)C3=NS(=O)(=O)c4ccccc43)ccc21 [Ex 111, 3-cyclobutyl-5-[(E)-[(1,1-dioxo-1,2-benzothiazol-3-yl)-methyl-hydrazono]methyl]-1-(methoxymethyl)benzimidazol-2-one] | 8.57
CN(/N=C/c1ccc2c(c1)n(C1CCC1)c(=O)n2COC(=O)C(C)(C)C)C1=NS(=O)(=O)c2ccccc21 [Ex 113, [3-cyclobutyl-5-[(E)-[(1,1-dioxo-1,2-benzothiazol-3-yl)-methyl-hydrazono]methyl]-2-oxo-benzimidazol-1-yl]methyl 2,2-dimethylpropanoate] | 4
CCCC(=O)OCn1c(=O)n(C2CCC2)c2cc(/C=N/N(C)C3=NS(=O)(=O)c4ccccc43)ccc21 [Ex 114, [3-cyclobutyl-5-[(E)-[(1,1-dioxo-1,2-benzothiazol-3-yl)-methyl-hydrazono]methyl]-2-oxo-benzimidazol-1-yl]methyl butanoate] | 4.95
CCOCn1c(=O)n(C2CCC2)c2cc(/C=N/N(C)C3=NS(=O)(=O)c4ccccc43)ccc21 [Ex 116, 3-cyclobutyl-5-[(E)-[(1,1-dioxo-1,2-benzothiazol-3-yl)-methyl-hydrazono]methyl]-1-(ethoxymethyl)benzimidazol-2-one] | 5.03

Same assay, conditions: HEK293 cells, compounds 0.1 μM to 30 μM, 24 h, luciferase activity

Structure (SMILES) | Max Act. (%), TEAD-GAL4 Transactivation activity [%]
COc1cc(/C=N/N(CC(C)C)C2=NS(=O)(=O)c3cc(OCC(N)=O)ccc32)ccc1F [Ex 104, 2-[[3-[[(E)-(4-fluoro-3-methoxy-phenyl)methyleneamino]-isobutyl. amino]-1,1-dioxo-1,2-benzothiazol-6-yl]oxy]acetamide] | 72

System: not given
Test: not given
Conditions: not given

melting point [°C] | Structure (SMILES)
258 to 261 | CN(/N=C/c1ccc(N2CCOCC2)cc1)C1=NS(=O)(=O)c2ccccc21 [Ex 3, N-methyl-N-[(E)-(4-morpholinophenyl)methyleneamino]-1,1-dioxo-1,2-benzothiazol-3-amine]
281 to 300 | CN(/N=C/c1cnc(N2CCOCC2)s1)C1=NS(=O)(=O)c2ccccc21 [Ex 7, N-methyl-N-[(E)-(2-morpholinothiazol-5-yl)methyleneamino]-1,1-dioxo-1,2-benzothiazol-3-amine]
228 to 231 | CNC(=O)Cc1ccc(/C=N/N(C)C2=NS(=O)(=O)c3ccccc32)cc1OC [Ex 20, 2-[4-[(E)-[(1,1-dioxo-1,2-benzothiazol-3-yl)-methyl-hydrazono]methyl]-2-methoxy-phenyl]-N-methyl-acetamide]
> 298 | CC1NC(=O)c2ccc(/C=N/N(C)C3=NS(=O)(=O)c4ccccc43)cc21 (centres unmarked) [Ex 31, 5-[(E)-[(1,1-dioxo-1,2-benzothiazol-3-yl)-methyl-hydrazono]methyl]-3-methyl-isoindolin-1-one]
> 295 | CN(/N=C/c1ccc2c(c1)C(C)(C)NC2=O)C1=NS(=O)(=O)c2ccccc21 [Ex 32, 5-[(E)-[(1,1-dioxo-1,2-benzothiazol-3-yl)-methyl-hydrazono]methyl]-3,3-dimethyl-isoindolin-1-one]
> 300 | CN(/N=C/c1ccc2c(c1)C(C)(C)C(=O)N2)C1=NS(=O)(=O)c2ccccc21 [Ex 33, 5-[(E)-[(1,1-dioxo-1,2-benzothiazol-3-yl)-methyl-hydrazono]methyl]-3,3-dimethyl-indolin-2-one]
288 to 289 | CCC1(CC)C(=O)Nc2ccc(/C=N/N(C)C3=NS(=O)(=O)c4ccccc43)cc21 [Ex 34, 5-[(E)-[(1,1-dioxo-1,2-benzothiazol-3-yl)-methyl-hydrazono]methyl]-3,3-diethyl-indolin-2-one]
313 to 315 | CN(/N=C/c1ccc2[nH]nnc2c1)C1=NS(=O)(=O)c2ccccc21 [Ex 35, N-[(E)-1H-benzotriazol-5-ylmethyleneamino]-N-methyl-1,1-dioxo-1,2-benzothiazol-3-amine]
219 to 221 | CN(/N=C/c1ccc(F)c(Cl)n1)C1=NS(=O)(=O)c2ccccc21 [Ex 37, N-[(E)-(6-chloro-5-fluoro-2-pyridyl)methyleneamino]-N-methyl-1,1-dioxo-1,2-benzothiazol-3-amine]
